Results as given in the METLIN SMRT retention time set (Domingo-Almenara et al. 2019).

Assay: gradient 5% acetonitrile 3 min, to 50% in 2 min, to 85% in 15 min, held 3 min, 100 µL/min
Conditions: column: Zorbax Extend-C18 2.1 x 50 mm; eluents: water / acetonitrile, 0.1% formic acid
In short: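 Retention times of pure standards were taken from adduct peaks that were selected by computer and manually inspected. Over 3 months, mixtures of ~100 molecules were run by HPLC–quadrupole time-of-flight mass spectrometry in positive and negative ionization mode. The Zorbax Extend-C18 column (2.1 × 50 mm, 1.8 μm) ran at 100 μL/min in water and acetonitrile, each containing 0.1% formic acid, with 40 μL dead volume and 900 μL dwell volume.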

RP-LC retention time [s] | SMILES
660 | CCCn1c(=O)sc2cc(S(=O)(=O)N3CCC(C(=O)Nc4ncccc4C)CC3)ccc21
648 | O=C(Nc1ccc2c(c1)OCCO2)N1CCC(n2c(-c3ccoc3)nc3cccnc32)C1 (stereo not given)
703 | COc1ccc(-c2nnc(-c3ccccc3)o2)cc1S(=O)(=O)NCC(=O)O
774 | CCN1C(=O)C2(CCN(S(=O)(=O)CC)CC2)c2ccccc21
652 | CCc1nc2c(c(=O)n1CC(=O)NC1CCCCC1)CN(Cc1ccccc1)CC2
1020 | Cc1nc(-c2ccc(C(F)(F)F)cc2)ncc1C(=O)NCc1ccco1
725 | Cn1nc(C(=O)NCc2ccc3c(c2)OCO3)c2c1CCN(C(=O)c1ccco1)C2
692 | CC(C)NC(=O)c1ccc2c(c1)NC(=O)C1CCCCN21 (stereo not given)
774 | O=C(NC1CCCCCC1)c1csc(-c2ccc(N3CCCC3)nc2)n1
732 | CCCCN(CCCNc1nc(C(=O)OCC)nc2ccccc12)c1ccccc1
877 | CC(C)n1cc(S(=O)(=O)Nc2cccc(F)c2)c2cccnc21
720 | Cn1cc(CC(=O)N2CCN(c3ncccn3)CC2)c2ccccc21
730 | CCc1ccccc1NC(=O)N(C)CC1CCOCC1
910 | CCc1ccc(Nc2nc(C(=O)N3CCCCCC3)nc3ccccc23)cc1
896 | Cc1c(Cl)cccc1-n1ccn2cc(-c3ccc(F)cc3)nc2c1=O
596 | CC(C)n1cnc2cc(CNC(=O)c3cccc(C#N)c3)ccc21
541 | Cc1cccc2nnc(N3CCCN(C(=O)c4cccs4)CC3)n12
984 | CS(=O)(=O)N1CCCc2cc(C(=O)Nc3cccc(Br)c3)ccc21
830 | O=C(Nc1ccnn1Cc1ccco1)c1cc(=O)c2cc(Cl)ccc2o1
1030 | CCc1noc(C2(NC(=O)c3ccc(F)c(Cl)c3)CCCCC2)n1
731 | CCn1cnc2cc(-c3noc(C4CC(=O)N(c5cccc(Cl)c5)C4)n3)ccc21 (stereo not given)
864 | CC1Oc2ccc(NC(=O)C3CCCC3)cc2CN(Cc2ccccc2F)C1=O (stereo not given)
894 | Cc1cc2c(c(=O)n(-c3ccccc3)c(=O)n2CC(=O)Nc2ccc(Br)cc2F)n1C

RP-LC retention time [s] | SMILES
715 | CN(C)C(=O)CN1C(=O)COc2ccc(C(=O)N3CCN(c4ccc(F)cc4)CC3)cc21
698 | CCOc1ccc(CNC(=O)Cc2cn(C)c3ncccc23)cc1
830 | O=C(NCc1cc(F)cc(F)c1)c1ccc2c(c1)nc1n2CCN(C2CCCCC2)C1=O
1110 | COC(=O)c1ccc2c(=O)n(-c3cccc(Cl)c3)c(N3CCSC3)nc2c1
819 | Cc1ccc(C2Cn3cnc(C(=O)N4CCC(C(=O)NCCC5=CCCCC5)CC4)c3CO2)cc1 (stereo not given)
1090 | Cc1csc(-c2csc(S(=O)(=O)N3CCCCCC3)c2)n1
589 | CN1CCCC2C(c3ccccc3)C(C3=NCCCC3)C(c3ccccc3)CC21 (stereo not given)
608 | Cc1nn2c(S(=O)(=O)N3CCN(C4CCCCC4)CC3)c(C)nc2s1
986 | CCn1cc(C2=CCN(S(=O)(=O)c3ccc(OC)cc3)CC2)c2cccnc21
1080 | O=C(NCc1ccccc1)C1CCCN(S(=O)(=O)c2cc(-c3noc(C4CCC4)n3)cs2)C1 (stereo not given)
712 | Cn1nccc1C(=O)N1CCC(c2cc(-c3ccc(F)cc3)n[nH]2)CC1
816 | Cc1cccc(Nc2c(-c3cccc(O)c3)nc3cnccn23)c1C
1090 | O=C(Cn1nc(N2CCCCCC2)c2ccccc2c1=O)Nc1ccc(F)cc1
1130 | O=C(COc1ccccc1)Nc1nc(-c2ccc(Cl)cc2)cs1
697 | Cc1cc(-c2ccc(S(=O)(=O)N3CCN(c4ccccn4)CC3)c(C)c2)on1
836 | Cc1ccc(-n2cc3c(N4CCCC(C(=O)NCc5ccc(C(C)C)cc5)C4)ncnc3n2)cc1 (stereo not given)
597 | CC(C)NC(=O)c1ccc(Cn2cncn2)cc1
849 | O=C(CCn1nnc2cc(-c3noc(-c4ccc(F)cc4)n3)ccc21)N1CCOCC1
646 | CCCNC(=O)C1CCCN(c2ccc(SCC(=O)NCc3cc(F)cc(F)c3)nn2)C1 (stereo not given)
950 | CC(NC(=O)Nc1cccc(Br)c1)C(=O)N1CCc2ccccc21 (stereo not given)
792 | N#Cc1ccc(NC(=O)C2CCN(S(=O)(=O)c3cc(C(=O)N4CCCC4)cs3)CC2)cc1
733 | CCn1c(C)c(CN2CCC(C(=O)NCc3ccc(C)cc3)CC2)c2ccccc21
909 | COc1ccc2c(c1)C=C(C(=O)Nc1cc(OC)c(OC)c(OC)c1)CO2

RP-LC retention time [s] | SMILES
1250 | Cc1cc(C)cc(-c2nnc(Cc3nc(-c4cccc(C(F)(F)F)c4)no3)o2)c1
687 | CN1C(=O)c2[nH]nc(-c3ccccc3)c2C1c1cccc(O)c1 (stereo not given)
1010 | CCCC(CCC)C(=O)N1CCCN(C2=NS(=O)(=O)C(c3ccc(C)cc3)=C2C)CC1
786 | COc1ccc(C2CCCN2C(=O)c2cc(C)on2)cc1 (stereo not given)
812 | CCc1nc(-c2csc(S(=O)(=O)N3CCC(C(=O)NC(C)C)CC3)c2)no1
939 | CCCCn1c(=O)c2c(nc3n2CCN3c2ccc(OC)cc2)n(C)c1=O
741 | CCN1CCn2c(nc3cc(C(=O)NCc4ccc(C(F)(F)F)cc4)ccc32)C1=O
588 | CN(CC(=O)N1CCN(C2CCCC2)CC1)S(=O)(=O)c1ccc2c(c1)CCCC(=O)N2
716 | CCCNC(=O)N1C[C@@H]2C(=O)N(CCc3ccccc3)C(=O)[C@@H]2C1
1140 | CC(C)c1ccc(NC(=O)C(=O)c2cn(CC(=O)N3CCCC3)c3ccccc23)cc1
623 | CC(=O)SCc1nc(SCC(=O)Nc2ccccc2C)n[nH]1
826 | O=S(=O)(Cc1ccccc1F)N1CCC(c2noc(-c3cccnc3)n2)C1 (stereo not given)
1010 | Cc1ccc(NC(=O)N2CCCC2c2nc(-c3cccc(F)c3)no2)cc1 (stereo not given)
554 | Cc1noc(C2CN(Cc3cc(Br)ccc3F)C2)n1
746 | O=C(CCN1C(=O)c2cccnc2Sc2ccccc21)NCCc1c[nH]c2ccccc12
595 | O=C(Nc1cccc(-c2nnc3n2CCCC3)c1)c1ccn[nH]1
918 | Cn1c(=O)n(CC(=O)N2CCCCC2)c(=O)c2cnc(-c3ccccc3)nc21
576 | CCCCN1CCN(C(=O)c2cc(-c3ccncc3)cn2Cc2ccccc2C)CC1
680 | Cc1nc(C)c(C(=O)N2CCCCCCNC(=O)[C@@H]3CCC[C@@H]32)s1
672 | CC(C)NC(=O)C1CCCN(c2nc3ncn(CC(=O)NCc4ccccc4)c(=O)c3s2)C1 (stereo not given)
595 | CC(C)(C)OC(=O)N1CCN(CCNC(=O)CSc2nc3ccccc3o2)CC1
603 | COc1ccccc1NC(=O)N1CCN(C2=CC3=NC(C)CN3C=N2)CC1 (stereo not given)
716 | Cc1ccc(Nc2nc3ccncc3n(C(C)C)c2=O)cc1C

RP-LC retention time [s] | SMILES
698 | CCc1nc2ccc(-c3noc(-c4ccsc4)n3)cc2n1CC
582 | CN1CCCC1c1nc(C2CN(C(=O)Cn3c(=O)oc4ccccc43)C2)no1 (stereo not given)
766 | CCCCc1nnc(NC(=O)C2CC(=O)N(CCc3c[nH]c4ccc(OC)cc34)C2)s1 (stereo not given)
1080 | Cc1noc(-c2nc(-c3cccc(C(F)(F)F)c3)no2)n1
868 | Cc1cc(C)c(CN2CCn3c(nn(C)c3=O)C2)c(C)c1
1270 | Cc1cc2c(cc(C(=O)NCCCc3ccccc3)n2Cc2ccc(Cl)cc2)o1
797 | CC1(CNC(=O)c2cccc(Br)c2)CCOCC1
661 | COC(=O)c1c(NCc2c(C)noc2C)c2ccccc2[nH]c1=O
736 | COCCc1noc(C2CN(C(=O)C3COc4ccccc4O3)C2)n1 (stereo not given)
927 | CCCc1nc(-c2c(C)cc(C)nc2NC(=O)c2ccccc2Br)no1
1240 | O=C(O)c1ccc2cc(-c3ccc(O)c(C4C5CC6CC(C5)CC4C6)c3)ccc2c1 (stereo not given)
785 | CCN1C(=O)C2(CCN(C(=O)c3c(C)noc3C)CC2)c2ccccc21
702 | CC(C)n1cnc(S(=O)(=O)N2CCCC(C(=O)NCc3ccccc3)C2)c1 (stereo not given)
954 | COCCCn1c(=O)c2ccccc2n(Cc2nc(-c3ccc4c(c3)OCO4)no2)c1=O
625 | COc1cccc(CNC(=O)c2nc(N3CCOCC3)c3c(C)cc(C)nc3n2)c1
1040 | O=C(Nc1ccc(Cl)cc1)N1CCCC1c1nc(-c2ccccc2)no1 (stereo not given)
792 | CCc1noc(NC(C)=O)c1-c1ccc(OC)c(S(=O)(=O)Nc2ccc(F)c(F)c2)c1
749 | COc1ccc(C(=O)N2CCN(c3cc(-c4cccs4)[nH]n3)CC2)cc1
824 | Cc1noc(-c2cccc(OC3CN(C(=O)c4cccc5[nH]ccc45)C3)c2)n1
619 | COc1ccc(OC)c(S(=O)(=O)N2CCC(Cc3nncn3C)C2)c1 (stereo not given)
886 | Cc1nn(-c2ccccc2)c(C)c1S(=O)(=O)N1CCC(C(=O)NCc2ccccc2)CC1
